For 23 compounds, IC50 results are on record in patent US20230063457A1, “DNA-PK INHIBITING COMPOUNDS” (Provincial Health Services Authority, priority 2019, published 2023).

Test [1] deals with DNA-PK kinase (Homo sapiens, UniProt P78527). As to the kind of experiment: Inhibition of DNA-PK kinase activity (ADP-Glo). The format is biochemical. The note with it: averaged values over all measurements on all batches; 150 μM ATP, 1 hour at 25° C. The procedure: Inhibition of DNA-PK Kinase Activity Assay buffer was 50 mM Hepes pH 7.5 containing 0.1 mg/ml BSA (albumin from bovine serum), 50 μM DTT (dithiothreitol), 20 mM MgCl2 and 10 μg/ml calf thymus DNA (activation buffer). Kinase reaction was carried out in OptiPlate 384 plates (PerkinElmer 6007299). All compounds tested were dissolved in dimethyl sulfoxide (DMSO) and further dilutions were made in assay buffer. Final DMSO concentration was 1% (v/v). Pre-incubation consisted of compound (1% DMSO in control and blank wells) and 24 ng/well DNA-PK kinase to allow the compounds to bind the enzyme (with buffer in the blank wells) for 15 minutes; after this time 150 μM Adenosine-5′-triphosphate (ATP) and 0.2 μg/μl DNA-PK substrate were added to commence the kinase reaction. Incubations were carried out for 1 hour at 25° C. Kinase activity was determined by using ADP-Glo™ reagent from Promega according to the manufacturer's instructions. The light generated was measured using a luminometer (EnVision, PerkinElmer). Signal obtained in the wells containing blank samples was subtracted from all other wells and IC50 values were determined by fitting a sigmoidal curve to % inhibition of control versus Log10 compound concentration.

The target of test [2] is T1, Phospho-DNA-PK in FaDu Cells (Homo sapiens, UniProt P78527).
T1 construct: host or cells: FaDu
As to the kind of experiment: Effect of compounds on phospho-DNA-PK in FaDu cells (MesoScale sandwich immunoassay). The note with it: 1 hour pre-incubation, 1 μg/ml Neocarzinostatin 2 hours, averaged values, read-out: MSD FaDu IC50. It counts as cell-based. The method, then: Effect of Compounds on Phospho-DNA-PK in FaDu Cells
All compounds tested were dissolved in DMSO and further dilutions were made in culture medium. Final DMSO concentration was 0.3% (v/v). The human FaDu cells (ATCC) were cultured in MEM medium supplemented with Glutamax and 10% fetal calf serum (PAA). Cells were routinely maintained at densities of 0.2×10^6 cells per ml at 37° C. in a humidified 5% CO2, 95% air atmosphere. Cells were passaged twice a week, splitting back to obtain the low density. Cells were seeded in 96 well plates (Corning 3904) at 1×10^6 cells per ml media in a volume of 50 μl per well. Seeded cells were incubated at 37° C. in a humidified 5% CO2, 95% air atmosphere for 24 hours. Compounds were added (25 μl) to the cells and pre-incubated for 1 hour. 1 μg/ml DNA-damaging agent Neocarzinostatin (NCS) was added (25 μl) to a final volume of 100 μl and incubated for 2 hours at 37° C. in a humidified 5% CO2, 95% air atmosphere. After this period of time plates were removed from the incubator and the 100 μl dilutions were removed from the wells gently, prior to the addition of 75 μl cold RIPA lysis buffer with protease and phosphatase inhibitors to achieve the cells lysis, followed by shaking on a plate shaker at 4° C. for 30 minutes. At the end of this incubation, lysate was assessed for phospho-DNA-PK levels by sandwich immune-assay carried out in anti-mouse antibody coated MesoScale plates. […] Signal obtained in the wells containing blank samples was subtracted from all other wells and IC50 values were determined by fitting a sigmoidal curve to % inhibition of control versus Logo compound concentration.

Consider `c1cnc(N2CCC(COc3nc(N4CCOCC4)cc4ncccc34)CC2)nc1` [Example 129], for which the values for the IC50 in test [1] and in test [2] were 44 nM and 1310 nM, respectively.

On to `CCCCc1nc2cc(N3CCOCC3)nc(O[C@H]3CC[C@@H](n4cc(F)cn4)CC3)c2cc1O` [Parent compound 175], for which the IC50 (as a rule, the midpoint of a concentration-inhibition curve) in test [1] is 18 nM; in test [2] it was 464 nM.

As to `CN(C)C(=O)c1ccnc(NCC2CCN(c3nc(N4CCOCC4)cc4ncccc34)CC2)n1` [Example 106], the IC50 in test [1] was found to be 52 nM; in test [2], 11400 nM.

On to `OCCC1CCN(c2nc(N3CCOCC3)cc3ncccc23)CC1` [Example 15], for which the IC50 in test [1] is 108 nM; in test [2], 2150 nM.

`C[C@H]1CN(c2ncn[nH]2)CC[C@@H]1Oc1nc(N2CCOCC2)cc2ncccc12` (single isomer, unassigned) [Parent compound 158]: the half-inhibitory concentration (IC50) amounted to 102 nM in test [1] and 10000 nM in test [2].

For `c1cnc(N[C@H]2[C@@H]3CN(c4nc(N5CCOCC5)cc5ncccc45)C[C@@H]32)nc1` [Example 12], the concentration for half-maximal inhibition (IC50) came to 70 nM in test [1] and 2550 nM in test [2].

As to `Cn1ncnc1[C@H]1CC[C@@H](Oc2nc(N3CCOCC3)cc3ncccc23)CC1` [Example 56], the IC50 stood at 12 nM in test [1] and 238 nM in test [2].

On to `Cc1cc(C(N)=O)nc(NCC2CCN(c3nc(N4CCOCC4)cc4ncccc34)CC2)n1` [Example 101], for which the figures for the IC50 in test [1] and in test [2] were 32 nM and 2130 nM, respectively.

As to `CNC(=O)c1ccnc(NCC2CCN(c3nc(N4CCOCC4)cc4ncccc34)CC2)n1` [Example 105], the IC50 worked out at 51 nM in test [1] and 1160 nM in test [2].

Turning to `FC(F)(F)c1cnc(NCC2CCN(c3nc(N4CCOCC4)cc4ncccc34)CC2)nc1` [Example 121], the figures for the IC50 in test [1] and in test [2] were 143 nM and 3520 nM, respectively.

For the compound `CC(=O)N1CCN(c2nc(N3CCOCC3)cc3ncccc23)CC1` [Example 84], the IC50 worked out at 188 nM in test [1] and 3840 nM in test [2].

Take `c1cnc(NC2CCCN(c3nc(N4CCOCC4)cc4ncccc34)CC2)nc1` (stereo not shown) [Example 18]: the IC50 is 149 nM in test [1] and 4640 nM in test [2].

Turning to `C[C@H]1COCCN1c1cc2ncccc2c(O[C@H]2CC[C@@H](c3nc[nH]n3)CC2)n1` [Example 67], the IC50 in test [1] was 32 nM; in test [2], 891 nM.

On to `N#C[C@H]1CC[C@@H](Oc2nc(N3CCOCC3)cc3ncccc23)CC1` [Example 4], for which the values for the IC50 in test [1] and in test [2] were 37 nM and 1830 nM, respectively.

Take `CNC(=O)N1CC(COc2nc(N3CCOCC3)cc3ncccc23)C1` [Example 148]: the IC50 amounted to 171 nM in test [1] and 4920 nM in test [2].

Regarding `c1cnc(NCCC2CN(c3nc(N4CCOCC4)cc4ncccc34)C2)nc1` [Example 21], the figures for the half-maximal inhibitory concentration (IC50) in test [1] and in test [2] were 164 nM and 7960 nM, respectively.

Regarding `NC(=O)[C@H]1CC[C@H](COc2nc(N3CCOCC3)cc3ncccc23)CC1` [Example 57], the IC50 in test [1] was 120 nM; in test [2] it was 2460 nM.

In the case of `c1cnc2cc(N3CCOCC3)nc(OC3CCN(c4ncn[nH]4)CC3)c2c1` [Example 155], the results for the IC50 in test [1] and in test [2] were 134 nM and 7860 nM, respectively.

`N#Cc1cccc(-c2ccnc(NCC3CCN(c4nc(N5CCOCC5)cc5ncccc45)CC3)n2)n1` [Example 119]: the IC50 in test [1] came to 136 nM; in test [2] it was 2410 nM.

Take `Oc1cnc2cc(N3CCOCC3)nc(O[C@H]3CC[C@@H](c4cscn4)CC3)c2c1` [Example 167]: the IC50 worked out at 4 nM in test [1] and 219 nM in test [2].

In the case of `c1cnc(NCC2CCN(c3nc(N4CCOCC4)cc4ncccc34)CC2)nc1` [Example 2], the concentration for half-maximal inhibition (IC50) amounted to 39 nM in test [1] and 743 nM in test [2].

Regarding `CNc1cnc2cc(N3CCOCC3)nc(O[C@H]3CC[C@@H](n4ccnc4)CC3)c2c1` [Parent compound 171], the 50% inhibitory concentration (IC50) in test [1] stood at 10 nM; in test [2], 270 nM.

`c1cnc2cc(N3CCOCC3)nc(O[C@H]3CC[C@@H](n4nccn4)CC3)c2c1` [Example 81]: the IC50 stood at 10 nM in test [1] and 507 nM in test [2].
